From patent EP4635969A1, “NOVEL GLUCOCORTICOID, METHOD FOR PREPARING SAME, AND USE THEREOF” (Tianjin Pharmaceutical Biotechnology Co., Ltd., priority 2022, dated 2024)
pEC50: −log10 of the molar value. Where two headings read alike, the source gives them in different places.

Columns and labels:
[1] = target: T1, progesterone receptor (PR) (Homo sapiens, UniProt P06401); assay: Assay for agonist activity on progesterone receptor (luciferase reporter, HEK293 cells transfected with pBIND-PR plasmid); format: cell-based; conditions: for Target selectivity PR/GR: ratio of EC50 values
T1 sequence (P06401 678-933): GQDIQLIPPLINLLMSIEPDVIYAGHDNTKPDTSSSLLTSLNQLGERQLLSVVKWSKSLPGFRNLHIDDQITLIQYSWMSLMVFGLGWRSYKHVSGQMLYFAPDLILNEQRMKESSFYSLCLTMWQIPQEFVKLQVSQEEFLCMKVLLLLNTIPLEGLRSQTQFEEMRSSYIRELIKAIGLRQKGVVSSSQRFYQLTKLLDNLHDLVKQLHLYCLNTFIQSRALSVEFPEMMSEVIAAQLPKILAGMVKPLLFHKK
Summary of the method: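 HEK293 cells transiently transfected with pBIND-MR or pBIND-PR, seeded in phenol red-free DMEM with 5% charcoal-stripped serum. Compounds tested as 12-point 4-fold dilutions from 50 µM in duplicate, 0.1% DMSO blank. Luciferase luminescence read, EC50 by nonlinear fit.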

[2] = tested on: epidermal layer in rats; assay: Adverse reactions of continuous dermal administration: thickness of the epidermal layer (H&E sections); format: in vivo, SD rats; conditions: for thickness of the epidermal layer after continuous dermal administration: compared with the blank control group
Source text: Pharmacological Example 10: Experiment on Adverse Reactions of Continuous Dermal Administration in Rats
Animals: SD rats, SPF grade, with an equal number of males and females, weighing 230-250 g.
Animal grouping: After adaptive feeding, the rats were randomly divided into 4 groups. […] One day before administration, the backs of rats were shaved at an area of 5 cm × 6 cm. […] The rats in the blank control group were applied with the blank matrix of corresponding mass on their backs, twice a day for a consecutive week. Table 21. Animal grouping and drug administration dosages for the experiment on adverse reactions of continuous dermal administration in rats
To examine the effects of continuous administration of the test samples on the epidermal layer, the back skin tissues were stained with hematoxylin and eosin (H&E) (magnification ×40), and the thickness of the epidermal layer was quantitatively measured based on the H&E-stained sections.

[3] = Determination of stability in plasma in vitro, human plasma (LC-MS/MS); format: in vitro ADME; conditions: same experimental conditions (human and mouse plasma)
Method: Pharmacological Example 3: Determination of Stability in Plasma in Vitro
The stock solution was diluted with acetonitrile to obtain a working solution at a concentration of 100 µ M. The solution should be freshly prepared prior to use and maintained at room temperature during application.
990 µ L of human and mouse plasma (N = 2) were separately pipetted and pre-incubated at 37 °C for 5 min. Then, 10 µ L of the test compound working solution was added and vortexed thoroughly (the final concentration of the test compound was 1 µ M). Immediately, 50 µ L of the plasma sample was added to 150 µ L of ice-cold precipitation agent containing the internal standard and vortexed thoroughly as the 0-time sample. The remaining plasma sample was continuously incubated at 37 °C, and 50 µ L of the plasma sample was aspirated and added to 150 µ L of ice-cold precipitation agent containing the internal standard at preset sampling time points, followed by thorough vortexing. The collected samples were stored in a freezer at -60 to -90 °C until analysis.
The concentration of the test compound was determined by LC-MS/MS, and its degradation was monitored. (semi-quantitative determination was conducted by comparing the peak area of the analyte to that of the internal standard).

Row | SMILES | pEC50 [1] | Target selectivity PR/GR [1] | thickness of the epidermal layer after continuous dermal administration [2] | plasma instability [3] | EC50 ([1]; EC50 of agonist activity, HEK293 reporter cells, top concentration 50 µM, read-out: Nuclear receptor enzyme activity (nM) PR) | Epidermal layer thickness (µm) ([2]; 100 mg cream on the back twice a day for a week (compounds 1 mg/g, Compound Dexamethasone Acetate 0.75 mg/g))
1 | C[C@]12C=CC(=O)C=C1CC[C@H]1[C@@H]3C[C@H]4OC(c5ccc(COC6CCOC6=O)cc5)O[C@@]4(C(=O)CO)[C@@]3(C)C[C@H](O)[C@@]12F (stereo partly drawn) [Compound 16, (6aS,6bR,7S,8aS,8bS,11aR,12aS,12bS)-6b-Fluoro-7-hydroxy-8b-(2-hydroxyacetyl)-6a,8a-dimethyl-10-(4-(((2-oxotetrahydrofuran-3-yl)oxy)methyl)phenyl)-1,2,6a,6b,7,8,8a,8b,11a,12,12a,12b-do decahydro-4H-naphtho[2',1':4,5]indeno[1,2-d][1,3]dioxol-4-one] | < 4.30 | > 1.2×10^5 | no significant changes in the thickness of the epidermal layer observed | exhibited the characteristic of plasma instability | – | –
2 | C[C@]12C=CC(=O)C=C1CC[C@H]1[C@@H]3C[C@H]4OC(c5ccc(CSC6CCOC6=O)cc5)O[C@@]4(C(=O)CO)[C@@]3(C)C[C@H](O)[C@@]12F (stereo partly drawn) [Compound 17, (6aS,6bR,7S,8aS,8bS,11aR,12aS,12bS)-6b-Fluoro-7-hydroxy-8b-(2-hydroxyacetyl)-6a,8a-dimethyl-10-(4-(((2-oxotetrahydrofuran-3-yl)thio)methyl)phenyl)-1,2,6a,6b,7,8,8a,8b,11a,12,12a,12b-do decahydro-4H-naphtho[2',1':4,5]indeno[1,2-d][1,3]dioxol-4-one] | – | > 1.7×10^5 | no significant changes in the thickness of the epidermal layer were observed | exhibited the characteristic of plasma instability | > 50000 nM | 23.5 ± 3.5 µm
3 | C[C@]12C=CC(=O)C=C1CC[C@H]1[C@@H]3C[C@H]4OC(c5ccc(CSC6COC(=O)C6)cc5Cl)O[C@@]4(C(=O)CO)[C@@]3(C)C[C@H](O)[C@@]12F (stereo partly drawn) [Compound 20, (6aS,6bR,7S,8aS,8bS,11aR,12aS,12bS)-10-(2-Chloro-4-(((5-oxotetrahydrofuran-3-yl)thio)methyl)phenyl)-6b-fluoro-7-hydroxy-8b-(2-hydroxyacetyl)-6a,8a-dimethyl-1,2,6a,6b,7,8,8a,8b,11a,12,12a, 12b-dodecahydro-4H-naphtho[2',1':4,5]indeno[1,2-d][1,3]dioxol-4-one] | – | – | no significant changes in the thickness of the epidermal layer observed | exhibited the characteristic of plasma instability | – | –
4 | C[C@]12C=CC(=O)C=C1CC[C@H]1[C@@H]3C[C@H]4OC(c5ccc(CNC6COC(=O)C6)cc5)O[C@@]4(C(=O)CO)[C@@]3(C)C[C@H](O)[C@@]12F (stereo partly drawn) [Compound 21, (6aS,6bR,7S,8aS,8bS,11aR,12aS,12bS)-6b-Fluoro-7-hydroxy-8b-(2-hydroxyacetyl)-6a,8a-dimethyl-10-(4-(((5-oxotetrahydrofuran-3-yl)amino)methyl)phenyl)-1,2,6a,6b,7,8,8a,8b,11a,12,12a,12b-dodecahydro-4H-naphtho[2',1':4,5]indeno[1,2-d][1,3]dioxol-4-one] | – | – | no significant changes in the thickness of the epidermal layer observed | exhibited the characteristic of plasma instability | – | –
5 | C[C@]12C=CC(=O)C=C1CC[C@H]1[C@@H]3C[C@H]4OC(c5ccc(COC6CCOC6=O)cc5)O[C@@]4(C(=O)CO)[C@@]3(C)C[C@H](O)[C@@]12Cl (stereo partly drawn) [Compound 22, (6aS,6bR,7S,8aS,8bS,11aR,12aS,12bS)-6b-Chloro-7-hydroxy-8b-(2-hydroxyacetyl)-6a,8a-dimethyl-10-(4-(((2-oxotetrahydrofuran-3-yl)oxy)methyl)phenyl)-1,2,6a,6b,7,8,8a,8b,11a,12,12a,12b-do decahydro-4H-naphtho[2',1':4,5]indeno[1,2-d][1,3]dioxol-4-one] | < 4.30 | > 9.1×10^4 | no significant changes in the thickness of the epidermal layer observed | exhibited the characteristic of plasma instability | – | –
6 | C[C@]12C=CC(=O)C=C1CC[C@H]1[C@@H]3C[C@H]4OC(c5ccc(CSC6COC(=O)C6)cc5)O[C@@]4(C(=O)CO)[C@@]3(C)C[C@H](O)[C@@]12Cl (stereo partly drawn) [Compound 26, (6aS,6bR,7S,8aS,8bS,11aR,12aS,12bS)-6b-Chloro-7-hydroxy-8b-(2-hydroxyacetyl)-6a,8a-dimethyl-10-(4-(((5-oxotetrahydrofuran-3-yl)thio)methyl)phenyl)-1,2,6a,6b,7,8,8a,8b,11a,12,12a,12b-do decahydro-4H-naphtho[2',1':4,5]indeno[1,2-d][1,3]dioxol-4-one] | – | – | no significant changes in the thickness of the epidermal layer observed | exhibited the characteristic of plasma instability | – | –
7 | C[C@]12C=CC(=O)C=C1[C@@H](F)C[C@H]1[C@@H]3C[C@H]4OC(c5ccc(CSC6CCOC6=O)cc5)O[C@@]4(C(=O)OCC#N)[C@@]3(C)C[C@H](O)[C@@]12F (stereo partly drawn) [Compound 37, Cyanomethyl (2S,6aS,6bR,7S,8aS,8bS,11aR,12aS,12bS)-2,6b-difluoro-7-hydroxy-6a,8a-dimethyl-4-oxo-10-(4-( ((2-oxotetrahydrofuran-3-yl)thio)methyl)phenyl)-1,2,4,6a,6b,7,8,8a,11a,12,12a,12b-dodecahydro-8bH-naphtho[2',1':4,5]indeno[1,2-d][1,3]dioxole-8b-carboxylate] | – | – | no significant changes in the thickness of the epidermal layer observed | exhibited the characteristic of plasma instability | – | –
8 | C[C@]12C=CC(=O)C=C1[C@@H](F)C[C@H]1[C@@H]3C[C@H]4OC(c5ccc(CSC6CCOC6=O)nc5)O[C@@]4(C(=O)CO)[C@@]3(C)C[C@H](O)[C@@]12F (stereo partly drawn) [Compound 46, (25,6aS,6bR,78,8a8,8bS,11aR,12a8,12b8S)-2,6b-Difluoro-7-hydroxy-8b-(2-hydroxyacetyl)-6a,8a-dimethyl-10-(6-(((2-oxotetrahydrofuran-3-yl)thio)methyl)pyridin-3-yl)-1,2,6a,6b,7,8,8a,8b,11a,12, 12a,12b-dodecahydro-4H-naphtho[2',1':4,5]indeno[1,2-d][1,3]dioxol-4-one] | – | – | no significant changes in the thickness of the epidermal layer observed | exhibited the characteristic of plasma instability | – | –
9 | C[C@]12C=CC(=O)C=C1CC[C@H]1[C@@H]3C[C@H]4OC(c5ccc(CSC6CCOC6=O)nc5)O[C@@]4(C(=O)CO)[C@@]3(C)C[C@H](O)[C@@]12Cl (stereo partly drawn) [Compound 48, (6aS,6bR,7S,8aS,8bS,11aR,12aS,12bS)-6b-Chloro-7-hydroxy-8b-(2-hydroxyacetyl)-6a,8a-dimethyl-10-(6-(((2-oxotetrahydrofuran-3-yl)thio)methyl)pyridin-3-yl)-1,2,6a,6b,7,8,8a,8b,11a,12,12a,12 b-dodecahydro-4H-naphtho[2',1':4,5]indeno[1,2-d][1,3]dioxol-4-one] | – | – | no significant changes in the thickness of the epidermal layer observed | exhibited the characteristic of plasma instability | – | –
10 | C[C@]12C=CC(=O)C=C1CC[C@H]1[C@@H]3C[C@H]4OC(c5ccc(CSC6CCOC6=O)cn5)O[C@@]4(C(=O)CO)[C@@]3(C)C[C@H](O)[C@@]12Cl (stereo partly drawn) [Compound 51, (6aS,6bR,7S,8aS,8bS,11aR,12aS,12bS)-6b-Chloro-7-hydroxy-8b-(2-hydroxyacetyl)-6a,8a-dimethyl-10-(5-(((2-oxotetrahydrofuran-3-yl)thio)methyl)pyridin-2-yl)-1,2,6a,6b,7,8,8a,8b,11a,12,12a,12 b-dodecahydro-4H-naphtho[2',1':4,5]indeno[1,2-d][1,3]dioxol-4-one] | – | – | no significant changes in the thickness of the epidermal layer observed | exhibited the characteristic of plasma instability | – | –
